Test results: the NIST ThermoML archive (doi:10.1016/j.jct.2009.04.005)
Numbers after ± are expanded uncertainties.

Conditions: 298.15 K, Liquid; for vapor or sublimation pressure: Closed cell (Static) method; for mass density: Vibrating tube method

SMILES: CCCCCl [1-chlorobutane]
- vapor or sublimation pressure: 13.52 ± 0.034 kPa
- mass density: 880.805 ± 0.3 kg/m3

SMILES: CCCCO [butan-1-ol]
- vapor or sublimation pressure: 0.91 ± 0.012 kPa
- mass density: 805.802 ± 0.15 kg/m3

SMILES: CCC(C)O (stereo not drawn) [butan-2-ol]
- vapor or sublimation pressure: 2.34 ± 0.02 kPa
- mass density: 802.451 ± 0.31 kg/m3

SMILES: CCCCCC [hexane]
- vapor or sublimation pressure: 20.22 ± 0.05 kPa
- mass density: 654.96 ± 0.33 kg/m3
